Assay results from patent US10501498B2 (BGI SHENZHEN, priority 2014, dated 2019).
“Also recorded” adds a separate entry of the source.

Tested on: HVA calcium channel
Type: cell-based, rat

KCCTMSVCQPPPVCTCCA [κ-CPTx-btl01]
current after loading: −459.93 pA | inhibition of HVA calcium channel currents compared with Nifedipine (positive control): inhibitory effect is higher than that of Nifedipine; also recorded: higher inhibition rate on HVA calcium channel currents than Nifedipine | inhibition rate (10 µM): 52.17%
